Counter-ions that a name gives are not always drawn. Where a SMILES comes first, the peptide text is derived from it. The star is where a group is joined. Hydrocinnamoyl = O=C(CCc1ccccc1)*; Tfa = O=C(C(F)(F)F)*
Assays:
MMP-1 = target: T1, MMP-1 (Homo sapiens, UniProt P03956); details: cited from earlier work; for IC50: IA = inactive
T1 sequence (P03956 100-469): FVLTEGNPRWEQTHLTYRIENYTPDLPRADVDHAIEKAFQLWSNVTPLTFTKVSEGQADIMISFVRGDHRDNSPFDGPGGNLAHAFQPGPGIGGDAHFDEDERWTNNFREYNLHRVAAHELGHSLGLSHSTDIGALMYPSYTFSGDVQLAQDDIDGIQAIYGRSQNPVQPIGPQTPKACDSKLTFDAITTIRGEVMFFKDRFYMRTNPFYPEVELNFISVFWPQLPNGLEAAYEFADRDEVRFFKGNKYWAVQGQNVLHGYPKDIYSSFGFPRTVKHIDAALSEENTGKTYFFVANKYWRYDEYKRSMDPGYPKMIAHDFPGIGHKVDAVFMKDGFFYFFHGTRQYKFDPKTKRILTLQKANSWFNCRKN

MMP-3 = MMP-3 (Homo sapiens, UniProt P08254); details: cited from earlier work
Sequence of MMP-3 (P08254 100-477, species assumed): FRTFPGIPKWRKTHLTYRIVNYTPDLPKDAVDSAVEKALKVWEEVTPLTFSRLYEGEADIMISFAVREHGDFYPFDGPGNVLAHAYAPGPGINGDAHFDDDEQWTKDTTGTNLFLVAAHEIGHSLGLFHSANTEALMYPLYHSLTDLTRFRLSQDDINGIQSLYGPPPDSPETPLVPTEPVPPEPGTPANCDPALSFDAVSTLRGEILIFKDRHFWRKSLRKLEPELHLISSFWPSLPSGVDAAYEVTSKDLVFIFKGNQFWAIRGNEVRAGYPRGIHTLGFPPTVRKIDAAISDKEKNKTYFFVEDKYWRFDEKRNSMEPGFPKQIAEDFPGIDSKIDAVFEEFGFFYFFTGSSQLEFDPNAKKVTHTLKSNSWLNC

MMP-9 = MMP-9 (Homo sapiens, UniProt P14780); details: cited from earlier work
Sequence of MMP-9 (P14780 94-707, species assumed): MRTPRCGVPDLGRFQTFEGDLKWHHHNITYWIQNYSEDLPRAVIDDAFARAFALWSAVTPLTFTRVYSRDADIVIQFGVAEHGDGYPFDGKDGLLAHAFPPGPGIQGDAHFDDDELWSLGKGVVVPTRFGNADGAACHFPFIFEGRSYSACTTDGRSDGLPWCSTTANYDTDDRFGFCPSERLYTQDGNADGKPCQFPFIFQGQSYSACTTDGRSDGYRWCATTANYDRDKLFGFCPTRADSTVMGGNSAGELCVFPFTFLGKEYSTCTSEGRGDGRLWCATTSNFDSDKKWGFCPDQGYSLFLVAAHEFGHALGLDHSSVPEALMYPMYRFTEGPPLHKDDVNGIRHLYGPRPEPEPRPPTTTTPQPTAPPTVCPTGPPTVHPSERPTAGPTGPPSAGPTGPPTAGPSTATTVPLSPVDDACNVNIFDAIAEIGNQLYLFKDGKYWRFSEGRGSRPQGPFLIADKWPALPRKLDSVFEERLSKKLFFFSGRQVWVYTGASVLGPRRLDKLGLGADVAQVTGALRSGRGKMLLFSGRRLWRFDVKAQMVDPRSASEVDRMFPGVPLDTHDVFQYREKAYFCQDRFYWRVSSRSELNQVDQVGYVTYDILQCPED

MMP-2 [1] = details: cited from earlier work
MMP-8 = MMP-8 (Homo sapiens, UniProt P22894); details: cited from earlier work
Sequence of MMP-8 (P22894 101-467, species assumed): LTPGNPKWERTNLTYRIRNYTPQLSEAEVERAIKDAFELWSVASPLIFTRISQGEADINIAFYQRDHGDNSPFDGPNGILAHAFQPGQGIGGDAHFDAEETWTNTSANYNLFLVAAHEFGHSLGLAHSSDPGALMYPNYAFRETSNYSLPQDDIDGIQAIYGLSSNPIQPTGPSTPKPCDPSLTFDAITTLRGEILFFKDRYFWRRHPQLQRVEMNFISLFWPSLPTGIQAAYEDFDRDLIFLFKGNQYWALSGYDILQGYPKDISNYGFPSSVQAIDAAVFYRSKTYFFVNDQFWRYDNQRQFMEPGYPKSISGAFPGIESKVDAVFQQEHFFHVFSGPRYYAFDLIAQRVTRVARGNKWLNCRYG

stromelysin = details: dosed orally at 30 mg/kg in rabbits injected with stromelysin; cited from earlier work
[2] = cited from earlier work; for activity in the guinea pig model of osteoarthritis (in words): in vivo; for inhibiting femoral lesions: guinea pig model of osteoarthritis
MMPs = details: cited from earlier work
MMP-2 [3] = test system: MMP-2
MMP-13 = MMP-13 (Homo sapiens, UniProt P45452); details: cited from earlier work
[4] = from MBP-sensitized splenocytes; cited from earlier work
[5] = in vivo; cited from earlier work
[6] = in vivo; cited from earlier work; remark: listed apart in the source

For `CNC(=O)[C@H](Cc1ccccc1)NC(=O)[C@H](CCCOCc1ccccc1)CC(=O)NO` [Compound 8], the IC50 (MMP-1) is listed as 2270 nM.
In the case of `COC(=O)c1cccc2c1C(=O)c1c(C(=O)OC)cc(C(=O)O)cc1C2=O` [Compound 48], the “inhibition of MMP-1 (in words)” value (MMP-1) is listed as “MMP-1 inhibitors”.
In the case of `CNC(=O)[C@H](Cc1ccccc1)NC(=O)[C@H](CC(C)C)N[C@@H](CCN1C(=O)c2cc3ccccc3cc2C1=O)C(=O)O` [Compound 28], the IC50 (MMP-3) is listed as 91 nM, the IC50 (MMP-1) is listed as 20 nM and the IC50 (MMP-9) is listed as 5 nM.
In the case of `CC(C)CC(NC(=O)C(CCc1ccccc1)NC(CCCCN1C(=O)c2ccccc2C1=O)C(=O)O)C(=O)Nc1ccccc1` (stereo not drawn) [Compound 27], the IC50 (MMP-3) is listed as 8 nM, the IC50 (MMP-1) is listed as 720 nM and the IC50 (MMP-2 [1]) is listed as 86 nM.
In the case of `NC(=O)C(Cc1ccccc1)NC(=O)C(CS)NC(=O)CCc1ccccc1` (stereo not drawn) [Compound 35] (Hydrocinnamoyl-Cys-Phe-NH2; configuration not given here), the IC50 (MMP-1) is given as 3500 nM and the IC50 (MMP-8) is given as 38 nM.
For `NC(=O)C(Cc1ccccc1)NC(=O)C(CS)NC(=O)C(F)(F)F` (stereo not drawn) [Compound 33] (Tfa-Cys-Phe-NH2; configuration not given here), the IC50 (MMP-1) is given as 40 nM.
In the case of `COc1ccc(S(=O)(=O)N(Cc2cccnc2)[C@@H](C(=O)NO)C(C)C)cc1` [Compound 40], the proteoglycan break down (stromelysin) is listed as “blocks proteoglycan break down” and the “activity in the guinea pig model of osteoarthritis (in words)” value (“activity in the guinea pig model” for short) [2] is listed as “effective”.
For `CCCNC(=O)CCC[C@H](CC(=O)NO)C(=O)N[C@@H](Cc1ccccc1)C(=O)NC` [Compound 6], the IC50 (MMP-1) is listed as 5100 nM and the IC50 (MMP-8) is listed as 2 nM.
For `Cc1ccc(CCCC(CP(=O)(O)O)C(=O)NC(CC2CCCCC2)C(=O)NCCc2ccccc2)cc1` (stereo not drawn) [Compound 37], the IC50 (MMP-3) is given as 277 nM, the IC50 (MMP-1) is given as 17000 nM and the IC50 (MMP-2 [1]) is given as 2.5 nM.
For `CNC(=O)[C@H](Cc1ccccc1)NC(=O)[C@H](CCCCO)CC(=O)NO` [Compound 5], the IC50 (MMP-1) is given as 64 nM and the IC50 (MMP-8) is given as 7 nM.
For `CCCCCCCCC(NC(C)C(=O)O)C(=O)NC(CC(C)C)C(=O)Nc1ccccc1` (stereo not drawn) [Compound 24], the IC50 (MMP-3) is listed as 570 nM, the IC50 (MMP-1) is listed as over 10000 nM and the IC50 (MMP-2 [1]) is listed as 340 nM.
In the case of `CO[C@H]1[C@H](O[C@@H]2c3c(cc4c(c3O)C(=O)c3c(O)cccc3C4=O)C(=O)[C@@](C)(O)[C@H]2OC)O[C@@H](C)[C@H](O)[C@H]1O` [Compound 46, aranciamycin], the “inhibition of MMPs (in words)” value (MMPs) is given as “weak inhibitors”.
In the case of `CC(C)C[C@H](N[C@@H](CCN1C(=O)c2cc3ccccc3cc2C1=O)C(=O)O)C(=O)NCc1ccc(C(=O)O)cc1` [Compound 31], the IC50 (MMP-1) is listed as 56 nM, the IC50 (MMP-9) is listed as 74 nM and the IC50 (MMP-2 [1]) is listed as 178 nM.
In the case of `CC(=O)NC(CS)C(=O)NC(Cc1ccccc1)C(N)=O` (stereo not drawn) [Compound 34] (Ac-Cys-Phe-NH2; configuration not given here), the IC50 (MMP-1) is listed as over 100000 nM and the “inhibition of MMP-1 (in words)” value (MMP-1) is listed as “did not inhibit”.
For `CC(C)CC(NC(CCN1C(=O)c2cc3ccccc3cc2C1=O)C(=O)O)C(=O)NCCc1ccccc1` (stereo not drawn) [Compound 30], the IC50 (MMP-1) is listed as 160 nM, the IC50 (MMP-9) is listed as 35 nM and the IC50 (MMP-2 [1]) is listed as over 10000 nM.
For `CNC(=O)[C@H](Cc1ccccc1)NC(=O)[C@H](CCCC(=O)NCCc1ccccc1)CC(=O)NO` [Compound 7], the IC50 (MMP-1) is listed as 1300 nM and the IC50 (MMP-8) is listed as 32 nM.
For `CC(=O)NC1C(O)CC(Cc2cc3ccc(=O)oc3cc2OC(=O)N(C)C)C(O)C1O` (stereo not drawn) [Compound 49], the “inhibition of MMP-1 (in words)” value (MMP-1) is listed as “weak inhibitors”.
For `O=C(C[C@@H](CCCc1ccccc1)C(=O)N[C@@H](CC1CCCCC1)C(=O)NCCc1ccccc1)NO` [Compound 17], the IC50 (MMP-3) is listed as 8.3 nM, the IC50 (MMP-1) is listed as 203 nM and the “selectivity for MMP-2 over MMP-1” value (MMP-2 [3]) is listed as 10,000 fold. The “selectivity for MMP-2 over MMP-3” value (MMP-2 [3]) was 100 fold.
For `O=C(C[C@@H](CCCc1ccc(Cl)cc1)C(=O)N[C@@H](CC1CCCCC1)C(=O)NCCNS(=O)(=O)N1CCOCC1)NO` [Compound 18], the IC50 (MMP-1) is listed as 385 nM, the IC50 (MMP-9) is listed as 0.016 nM and the IC50 (MMP-2 [1]) is listed as under 0.01 nM. For the same molecule, the “inhibition of MMP-13 (in words)” value (MMP-13) was “potently inhibits”.
For `Cc1ccc(CCC[C@H](CC(=O)O)C(=O)N[C@@H](CC2CCCCC2)C(=O)NCCc2ccccc2)cc1` [Compound 19], the IC50 (MMP-3) is listed as 470 nM, the IC50 (MMP-1) is listed as 22000 nM and the IC50 (MMP-2 [1]) is listed as 1 nM.
For `CNC(=O)[C@@H](NC(=O)[C@@H](CC(=O)NO)CC(C)C)C(C)(C)C` [RO 31-9790], the “protection in adoptively transferred EAE” value [4] is given as “protect”.
In the case of `O=C(CC(CCc1ccccc1)C(=O)O)c1ccc(-c2ccc(OCc3ccccc3)cc2)cc1` (stereo not drawn) [Compound 43], the IC50 (MMP-3) is given as 17 nM, the IC50 (MMP-9) is given as 3200 nM and the IC50 (MMP-2 [1]) is given as 14 nM. The inhibiting femoral lesions [2] was 37.8% and the “activity in the guinea pig model” value [2] was “active”.
For `CNC(=O)[C@H](Cc1ccccc1)NC(=O)[C@H](CC(C)C)N[C@@H](CCN1C(=O)c2cc3ccccc3c(OC)c2C1=O)C(=O)O` [Compound 29], the IC50 (MMP-3) is given as 1400 nM, the IC50 (MMP-1) is given as 54 nM and the IC50 (MMP-9) is given as 7 nM.
In the case of `CCCCCCCCCCCC[C@H](CC(=O)O)C(=O)N[C@@H](Cc1ccccc1)C(=O)NC` [Compound 11], the “MMP-1 % @ 100 µM” value (MMP-1; @ 100 µM) is listed as 30% @ 100 µM.
For `CCCc1ccc(CCC(CC(CCCCN2C(=O)c3ccccc3C2=O)C(=O)O)C(=O)NC(CC(C)C)C(=O)Nc2ccccc2)cc1` (stereo not drawn) [Compound 32], the IC50 (MMP-3) is given as 0.036 nM, the IC50 (MMP-1) is given as over 10000 nM and the IC50 (MMP-2 [1]) is given as 5.7 nM.
In the case of `O=C(CC(CCN1C(=O)c2ccccc2C1=O)C(=O)O)c1ccc(-c2ccc(OCc3ccccc3)cc2)cc1` (stereo not drawn) [Compound 44], the IC50 (MMP-3) is given as 5.7 nM, the IC50 (MMP-9) is given as 1.5 nM and the IC50 (MMP-2 [1]) is given as 0.91 nM. The “antimetastatic effect, spontaneous metastasis model” value [5] was “antimetastatic”, the “antimetastatic effect, tail vein metastasis model” value [6] was “antimetastatic” and the inhibiting femoral lesions [2] was 53%. The “activity in the guinea pig model” value [2] was “active”.

Source: patent EP1366765A1, “Use of matrix metalloproteinase inhibitors for treating neurological disorders and promoting wound healing” (priority 1996, dated 1998)
